Calls of active or inactive are those of the source. The calls are words filed in the database; no cut-off is given here.
Assays:
[1] = Induction of copper transporting activity in human HeLa cells assessed as fold increase in intracellular copper levels at 2 uM incubated for 4 hrs by ICP-MS analysis; type: functional
[2] = Stability of compound in PBS buffer in presence of cysteine by UV-Vis spectrophotometer analysis; type: physicochemical
[3] = Stability of compound in PBS buffer in presence of histidine by UV-Vis spectrophotometer analysis; type: physicochemical
HeLa [4] = assay: Induction of copper transporting activity in human HeLa cells assessed as increase in intracellular copper levels by measuring change in fluorescence intensity; type: functional, cell-based
HeLa [5] = assay: Induction of copper transporting activity in human HeLa cells assessed as increase in intracellular copper levels at 0.02 to 20 uM by ICP-MS analysis; type: functional, cell-based; conditions: dose 0.02-20 µM, time <= 24.0 hrs
HepG2 [6] = assay: Cytotoxicity against human HepG2 cells assessed as cell viability at 0.1 to 5 uM measured at 24 hrs by MTT assay; type: functional, cell-based; conditions: dose 0.1-5 µM
Hepatocyte = assay: Cytotoxicity against mouse Hepatocyte assessed as cell viability at 0.1 to 5 uM compound administrated as copper complex measured at 24 hrs by MTT assay; type: toxicity, cell-based; conditions: hepatocytes, dose 0.1-5 µM
HepG2 [7] = assay: Anti-NAFLD activity in palmitic acid human HepG2 NAFLD cell model assessed as cell viability at 0.1 to 0.5 uM compound administrated as copper complex measured at 24 hrs by MTT assay; type: functional, cell-based; conditions: dose 0.1-0.5 µM
HepG2 [8] = assay: Anti-NAFLD activity in palmitic acid human HepG2 NAFLD cell model assessed as increase in ROS level at 5 uM compound administrated as copper complex measured at 24 hrs by DCFH-DA probe based flow cytometry analysis; type: functional
HepG2 [9] = assay: Anti-NAFLD activity in palmitic acid human HepG2 NAFLD cell model assessed as increase in lipid droplet level at 5 uM compound administrated as copper complex measured at 24 hrs by Oil Red O staining based assay relative to control; type: functional
HepG2 [10] = assay: Anti-NAFLD activity in palmitic acid human HepG2 NAFLD cell model assessed as effect on CYP4F11 expression at 0.5 uM incubated for 24 hrs in presence of CuCl2 by mRNA sequencing analysis; type: functional, cell-based
HepG2 [11] = assay: Anti-NAFLD activity in palmitic acid human HepG2 NAFLD cell model assessed as effect on HMOX1 expression at 0.5 uM incubated for 24 hrs in presence of CuCl2 by mRNA sequencing analysis; type: functional, cell-based
HepG2 [12] = assay: Anti-NAFLD activity in palmitic acid human HepG2 NAFLD cell model assessed as effect on SLC48A1 expression at 0.5 uM incubated for 24 hrs in presence of CuCl2 by mRNA sequencing analysis; type: functional, cell-based
HepG2 [13] = assay: Anti-NAFLD activity in palmitic acid human HepG2 NAFLD cell model assessed as upregulation of MT1E expression at 0.5 uM incubated for 24 hrs in presence of CuCl2 by mRNA sequencing analysis; type: functional, cell-based
HepG2 [14] = assay: Anti-NAFLD activity in palmitic acid human HepG2 NAFLD cell model assessed as upregulation of CYP4F11 expression at 0.5 uM incubated for 24 hrs in presence of CuCl2 by mRNA sequencing analysis; type: functional, cell-based
HepG2 [15] = assay: Anti-NAFLD activity in palmitic acid human HepG2 NAFLD cell model assessed as upregulation of CAT expression at 0.5 uM incubated for 24 hrs in presence of CuCl2 by mRNA sequencing analysis; type: functional, cell-based
HepG2 [16] = assay: Anti-NAFLD activity in palmitic acid human HepG2 NAFLD cell model assessed as upregulation of PRDX1 expression at 0.5 uM incubated for 24 hrs in presence of CuCl2 by mRNA sequencing analysis; type: functional, cell-based
HepG2 [17] = assay: Anti-NAFLD activity in palmitic acid human HepG2 NAFLD cell model assessed as upregulation of TXN expression at 0.5 uM incubated for 24 hrs in presence of CuCl2 by mRNA sequencing analysis; type: functional, cell-based
Mus musculus [18] = assay: Anti-NAFLD activity in high-fat diet-induced male C57BL/6J mouse model assessed as increase in lipid droplets accumulation in liver at 125 mg/kg, po compound administrated as copper complex measured for 10 weeks by H and E staining based analysis; type: functional, organism-based
Mus musculus [19] = assay: Anti-NAFLD activity in high-fat diet-induced male C57BL/6J mouse model assessed as increase in lipid droplets accumulation in liver at 125 mg/kg, po compound administrated as copper complex measured for 10 weeks by oil red O staining based analysis; type: functional, organism-based
[20] = Toxicity in male C57BL/6 mouse assessed as heart lesion at 125 mg/kg, po compound administrated as copper complex measured for 10 weeks; type: organism-based; conditions: in vivo, 1680 h
Mus musculus [21] = assay: Anti-NAFLD activity in high-fat diet-induced male C57BL/6J mouse model assessed as increase in copper level in liver at 125 mg/kg, po compound administrated as copper complex measured for 10 weeks by ICP-MS analysis; type: functional, organism-based
Mus musculus [22] = assay: Anti-NAFLD activity in high-fat diet-induced male C57BL/6J mouse model assessed as increase in copper level in serum at 125 mg/kg, po compound administrated as copper complex measured for 10 weeks by ICP-MS analysis; type: functional, organism-based
Mus musculus [23] = assay: Anti-NAFLD activity in high-fat diet-induced male C57BL/6J mouse model assessed as reduction in serum NEFA level at 125 mg/kg, po compound administrated as copper complex measured for 10 weeks; type: functional; design: scale not given: the % may be the effect or the level left
Mus musculus [24] = assay: Anti-NAFLD activity in high-fat diet-induced male C57BL/6J mouse model assessed as increase in glucose level serum at 125 mg/kg, po compound administrated as copper complex measured for 10 weeks; type: functional, organism-based
Mus musculus [25] = assay: Anti-NAFLD activity in high-fat diet-induced male C57BL/6J mouse model assessed as increase in lactate level at 125 mg/kg, po compound administrated as copper complex measured for 10 weeks by LC-MS/MS analysis; type: functional, organism-based
Mus musculus [26] = assay: Anti-NAFLD activity in high-fat diet-induced male C57BL/6J mouse model assessed as increase in Ru5P level in liver at 125 mg/kg, po compound administrated as copper complex measured for 10 weeks by LC-MS/MS analysis; type: functional, organism-based
Mus musculus [27] = assay: Anti-NAFLD activity in high-fat diet-induced male C57BL/6J mouse model assessed as increase in X5P level in liver at 125 mg/kg, po compound administrated as copper complex measured for 10 weeks by LC-MS/MS analysis; type: functional, organism-based
Mus musculus [28] = assay: Anti-NAFLD activity in high-fat diet-induced male C57BL/6J mouse model assessed as increase in S7P level in liver at 125 mg/kg, po compound administrated as copper complex measured for 10 weeks by LC-MS/MS analysis; type: functional, organism-based
Mus musculus [29] = assay: Anti-NAFLD activity in high-fat diet-induced male C57BL/6J mouse model assessed as increase in E4P level in liver at 125 mg/kg, po compound administrated as copper complex measured for 10 weeks by LC-MS/MS analysis; type: functional, organism-based
Mus musculus [30] = assay: Anti-NAFLD activity in high-fat diet-induced male C57BL/6J mouse model assessed as increase in F6P level in liver at 125 mg/kg, po compound administrated as copper complex measured for 10 weeks by LC-MS/MS analysis; type: functional, organism-based

O=c1c(O)c(-c2ccc3cccc(O)c3n2)oc2ccccc12
fold change (FC) [1]: ~5 | Stability [2]: Stable | Stability [3]: Stable | Activity (HeLa [4]): Active | Activity (HeLa [5]): Time-dependent-effect | Activity (HepG2 [6]): Active | Activity (Hepatocyte): Non-toxic | Activity (HepG2 [7]): Active | Activity (HepG2 [8]): Active | Activity (HepG2 [9]): 31% | Activity (HepG2 [10]): Active | Activity (HepG2 [11]): Active | Activity (HepG2 [12]): Active | Activity (HepG2 [13]): Active | Activity (HepG2 [14]): Active | Activity (HepG2 [15]): Active | Activity (HepG2 [16]): Active | Activity (HepG2 [17]): Active | Activity (Mus musculus [18]): Active | Activity (Mus musculus [19]): Active | Activity [20]: Non-toxic | Activity (Mus musculus [21]): Active | Activity (Mus musculus [22]): Active | Activity (Mus musculus [23]): 52% | Activity (Mus musculus [24]): Active | Activity (Mus musculus [25]): Active | Activity (Mus musculus [26]): Active | Activity (Mus musculus [27]): Active | Activity (Mus musculus [28]): Active | Activity (Mus musculus [29]): Active | Activity (Mus musculus [30]): Active

Reference: ChEMBL document CHEMBL6115034, “Pseudonatural Flavonols as Novel Copper Ionophores for NAFLD Intervention via Synergistic Copper Delivery and Flavonoid Activity” (J Med Chem, 2025)
